Results reported in patent publication EP1076064A1, “NOVEL ASPARTAME DERIVATIVE CRYSTAL AND PROCESS FOR PRODUCING THE SAME” (Ajinomoto Co., Inc., priority 1998, dated 1999).

Tests used:
[1] = Measurement of the dissolution rate for the dried crystals (dissolution tester); type: physicochemical; conditions: 0.5 g crystals in 900 ml ion exchanged water kept at 20 °C, stirring 100 rpm
Method: The dissolution rates of the A-type crystals (Reference Example 4 (b)) and the D-type crystals (Example 1) were determined in the following method. The apparatus used was "DISSOLUTION TESTER" (NTR-6100) manufactured by Toyama Sangyo K. K. 0.5 g each of the A-type crystals and D-type crystals were introduced into 900 ml ion exchanged water kept at 20 °C at a stirring in the number of revolution of 100 rpm, and the time which elapsed until the crystals came to be completely dissolved was measured.

[2] = cited from earlier work

time which elapsed until the crystals came to be completely dissolved [1]	SMILES	efficacy of sweetness relative to Aspartame ([2]; in weight ratio, versus Aspartame)	efficacy of sweetness relative to sucrose (table sugar) ([2]; versus sucrose (table sugar))
about 35 minutes	COC(=O)[C@H](Cc1ccccc1)NC(=O)[C@H](CC(=O)O)NCCC(C)(C)C [A-type crystals, N-[N-(3,3-dimethylbutyl)-L-α-aspartyl]-L-phenylalanine methyl ester, reference compound]	–	–
about 5 minutes	COC(=O)[C@H](Cc1ccccc1)NC(=O)[C@H](CC(=O)O)NCCC(C)(C)C [D-type crystals, N-[N-(3,3-dimethylbutyl)-L-α-aspartyl]-L-phenylalanine methyl ester]	–	–
–	COC(=O)[C@H](Cc1ccccc1)NC(=O)[C@H](CC(=O)O)NCCC(C)(C)C [N-(3,3-dimethylbutyl)-APM, N-[N-(3,3-dimethylbutyl)-L-α-aspartyl]-L-phenylalanine methyl ester]	at least 50 times	about 10,000 times
